Results on 2 compounds are retold here after patent US9359634B2, “Fast reaction kinetics of enzymes having low activity in dry chemistry layers” (Roche Diabetes Care, Inc., priority 2009, dated 2016).

Experiment [1] has as its target T1, wild type glucose dehydrogenase (GlucDH) from Bacillus subtilis (Bacillus subtilis, UniProt P12310, A229V/A236S/Q252K). The conditions noted are these: in the complex GlucDH-NADH; cited from earlier work.
In experiment [2] the target is T1, wild type glucose dehydrogenase (GlucDH) from Bacillus subtilis. In words: Detection of ternary complexes by NADH fluorescence in the cuvette test. It is filed as binding. As to the method:
In order to check the existence of ternary complexes consisting of enzyme, reduced coenzyme and glucose or gluconolactone, experiments on the binding of the analyte based on the fluorescence properties of NADH were carried out in the cuvette test.
For this purpose, 1 mg NADH (Roche Company) was dissolved in 1 ml phosphate buffer and the associated fluorescence spectrum was recorded. Subsequently, 10 mg wild type glucose dehydrogenase (GlucDH) from Bacillus subtilis was added whereupon the complex GlucDH-NADH known from the literature was formed, which complex, due to a considerably longer life time of NADH (3 ns compared to 0.4 ns in the free state), yielded a shifted emission maximum at 450 nm (see FIG. 3).
The lowering of the fluorescence which also corresponds to a shortening of the life time is presumably due to the rapid energy depletion by the redox pair NADH-gluconolactone.

The target in experiment [3] is glucose dehydrogenase from Bacillus subtilis (Bacillus subtilis, UniProt P12310, A229V/A236S/Q252K). It is filed as biochemical. The conditions noted are these: dry reagent layer with wild type glucose dehydrogenase, blood applied, presence vs absence of gluconolactone.
Chain of glucose dehydrogenase from Bacillus subtilis (P12310 whole entry A229V/A236S/Q252K): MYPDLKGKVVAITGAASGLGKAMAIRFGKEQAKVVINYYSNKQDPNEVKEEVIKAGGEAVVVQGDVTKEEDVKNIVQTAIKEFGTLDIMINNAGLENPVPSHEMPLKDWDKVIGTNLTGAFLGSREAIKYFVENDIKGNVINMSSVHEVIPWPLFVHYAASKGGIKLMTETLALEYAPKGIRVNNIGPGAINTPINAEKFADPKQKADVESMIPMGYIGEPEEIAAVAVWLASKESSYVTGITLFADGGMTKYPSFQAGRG

T1 sequence (P12310 whole entry A229V/A236S/Q252K): as above

With `NC(=O)C1=CN([C@@H]2O[C@H](COP(=O)(O)OP(=O)(O)OC[C@H]3O[C@@H](n4cnc5c(N)ncnc54)[C@H](O)[C@@H]3O)[C@@H](O)[C@H]2O)C=CC1` [NADH], in experiment [1], the “life time of NADH” value was 3 ns. Besides, in experiment [2] (NADH in the complex GlucDH-NADH, phosphate buffer), the emission maximum is 450 nm.

With `O=C1O[C@H](CO)[C@@H](O)[C@H](O)[C@H]1O` [gluconolactone], the “effect of added gluconolactone on the conversion of glucose” value in experiment [3] is reported as “considerable slowing down of the conversion”. In addition, the “change of fluorescence on titration of the complex GlucDH-NADH” value in experiment [2] (binary complex GlucDH-NADH titrated with the substance) is on record as “lowered the fluorescence”. The emission maximum in experiment [2] (complex GlucDH-NADH after titration with gluconolactone) is 427 nm.
